pIC50: −log10 of the molar value.
Experiments:
[1] = system: Lewis lung adenocarcinoma; conditions: rats, intraperitoneal and per os, subtoxic doses; cited from earlier work
[2] = system: mouse colon adenocarcinoma cells; conditions: subtoxic dose, colon 38 spleen liver model; cited from earlier work
[3] = system: VEGFxxxb and total VEGF in RPE cells; experiment: Dose dependent effect on VEGF in RPE cell lysate (ELISA, Western blot); format: cell-based; conditions: 24 hours
Description: FIG. 7: Comparison of the effect of compound 5 on the VEGF levels by ELISA. RPE cells were treated with increasing concentrations of compound 5 for 24 hours and the VEGFxxxb and total VEGF concentrations measured by ELISA. **p<0.05, Dunnett's, **p<0.01, 95% confidence interval, alpha=0.05, N=3.
FIG. 8: (A) Western Blot analysis of the cell lysate for expression of VEGF165b. Primary antibody: 56/1 mouse anti-h antibody (200 μg/ml, 1:250 dilution) and secondary antibody: Goat anti-mouse antibody (1:7000 dilution).
RPE cell lysate was extracted after 24 hours incubation with increasing concentrations of compound 5. VEGFxxxb and VEGFxxx levels were then analysed by ELISA (see Bates et al., 2002, Woolard et al., 2004 and Varey et al., 2008 for methods). These levels were compared to total cell protein levels.

[4] = system: retinal neovascularisation; experiment: Mouse Retinopathy of Prematurity (ROP) oxygen induced retinopathy model; format: in vivo; conditions: for neovascularisation compared with contralateral eye: day 17, p<0.01 paired t-test
Description: Evidence that compound 5, a borrelidin analogue which affects splicing of VEGF through FBP21, affects angiogenesis was gained from an in vivo mouse model, […] (ROP), which mimics some of the processes in Age-related Macular Degeneration and other eye diseases where neovascularisation is associated with disease progression.
Compound 5 was dosed at two concentrations, 0.5 μM and 5 μM, in a mouse Retinopathy of Prematurity (ROP) model (see Konopatskaya et al., 2006 for methods). Oxygen induced retinopathy was induced by placing the mice at 75% oxygen from day 7 to day 12 post birth and then removing them to normal room air. Mice were injected with either vehicle (0.02% DMSO in HBSS) or 0.5 μM or 5 μM compound 5 into one eye, and the other left uninjected (contralateral). At day 17 mice were killed, retinas removed and stained for endothelial cells with isolectin (FIG. 11).

[5] = system: VEGFxxx and VEGFxxxb expression in RPE cells; experiment: VEGF isoform ELISA of media of treated RPE cells; format: cell-based; conditions: 0.5 μM or 5 μM, 72 hours
Description: Media was sampled after 72 hours treatment, and assessed for total VEGF and VEGFxxxb expression (see Bates et al., 2002, Woolard et al., 2004 and Varey et al., 2008 for methods).

FBP21 in HEK cells = experiment: VEGFxxxb levels in HEK cells transfected with FBP21 construct; format: cell-based, human; conditions: pWV327 vs pOriGene-FBP21 control, 7 uM, 24 hours
Description: (§1) pOriGene-FBP21 (FIG. 9A, SEQ ID No. 5) was purchased from Origene. This construct contains the cDNA for the human FBP21 gene. Due to the presence in this contruct of non-essential DNA which would have disrupted the expression of FBP21, a three part ligation was carried out to remove this DNA. This generated pWV327 (FIG. 9B, SEQ ID No. 6).
(§2) Both RPE and HEK cells were transfected with either pOriGene-FBP21 (as a control, due to the lack of FBP21 expression) or pWV327 (for overexpression of FBP21), using standard techniques. These cell lines were then treated with compound 5 (7 uM) or untreated, and VEGFxxxb levels analysed after 24 hours. FIGS. 10A, B and C show the results of this analysis.

FBP21 in RPE cells = experiment: VEGFxxxb levels in RPE cells transfected with FBP21 construct; format: cell-based, human; conditions: pWV327 vs pOriGene-FBP21 control, 7 uM, 24 hours
Description: as §1, §2

HUVEC [6] = experiment: HUVEC growth inhibition assay (NCI); format: cell-based, human; conditions: 72 h, crystal violet
Description: Angiogenesis assays were provided by the NCI, details of the assay protocols are given below. In each assays TNP-470 and paclitaxel (Taxol®) were used as reference compounds. HUVEC (1.5×10^3) were plated in a 96-well plate in 100 μL of EBM-2 (Clonetic #CC3162). […] On day 0, one plate was stained with 0.5% crystal violet in 20% methanol for 10 minutes, rinsed with water, and air-dried. The remaining plates were incubated for 72 h at 37° C. After 72 h, plates were stained with 0.5% crystal violet in 20% methanol, rinsed with water and air-dried. The stain was eluted with 1:1 solution of ethanol:0.1 M sodium citrate (including day 0 plate), and absorbance was measured at 540 nm with an ELISA reader (Dynatech Laboratories). Day 0 absorbance was subtracted from the 72 h plates and data was plotted as percentage of control proliferation (vehicle treated cells).

HUVEC [7] = experiment: HUVEC cord formation assay on matrigel (NCI); format: cell-based, human; conditions: 24 h
Description: Angiogenesis assays were provided by the NCI, details of the assay protocols are given below. In each assays TNP-470 and paclitaxel (Taxol®) were used as reference compounds. Matrigel (60 μL of 10 mg/mL; Collaborative Lab #35423) was placed in each well of an ice-cold 96-well plate. The plate was allowed to sit at room temperature for 15 minutes then it was incubated at 37° C. for 30 minutes to permit the matrigel to polymerize. In the mean time, HUVEC were prepared in EGM-2 (Clonetic #CC3162) at a concentration of 2×10^5 cells/mL. […] The cells (500 μL) and the drug at 2 times concentration (500 μL) were mixed and 200 μL of this suspension was placed in duplicate on the polymerized matrigel. After 24 h incubation, triplicate pictures were taken for each concentration using a Bioquant Image Analysis system. Drug effect (IC50) is assessed compared to untreated controls by measuring the length of cords formed and number of junctions.

FBP21 = molecular target: T1, FBP21 (Homo sapiens, UniProt O75554); experiment: Phage display biopanning with biotinylated bait, Human Colon Tumour Library; format: binding; conditions: SDS and E. coli elution
T1 construct: encode 99 amino acids in frame with the phage coat protein of which a segment of 83 residues share 100% homology with FBP21; purchased Novagen; host or cells: T7 phage amplified in E. coli BLT5403
T1 sequence (O75554 with tags, fused parts or gaps): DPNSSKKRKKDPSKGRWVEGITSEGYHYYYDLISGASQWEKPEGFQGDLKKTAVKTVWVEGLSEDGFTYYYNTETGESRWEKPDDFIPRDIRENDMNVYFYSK
Description: Streptavidin wells were incubated with 1 μM biotinylated probe at 4° C. overnight to prepare the wells for biopanning. After incubation, unbound biotinylated probe was removed from the well by washing with phosphate buffered saline (PBS). Wells were then blocked with blocking solution (3% skimmed milk in PBS) for at least one hour at room temperature. Blocked wells were then briefly washed with PBS and were ready for biopanning use. […] In the first round of biopanning, 0.15 mL of amplified phage library was added to an empty streptavidin coated well and incubated at room temperature for at least 1 hour. This step was included to deselect any phage displaying streptavidin binding proteins. After incubation, the phage were removed from the well and mixed with 50 μL 4× blocking solution (12% skimmed milk in PBS) and incubated at room temperature for at least one hour. 0.125 mL of blocked phage library was added to each pre-prepared biotinylated well and incubated at room temperature for at least one hour. […] After incubation, unbound phage were removed from the well with wash solution. The wash solution was varied depending on the round of biopanning. For first round of biopanning PBS1 was used. For subsequent rounds the stringency of the wash was increased by using sequentially PBS2, PBS3 and PBS4 (see Table I). […]

HUVEC [8] = experiment: HUVEC cell migration (chemotaxis) assay, Boyden chamber (NCI); format: cell-based, human; conditions: 5 h
Description: Angiogenesis assays were provided by the NCI, details of the assay protocols are given below. In each assays TNP-470 and paclitaxel (Taxol®) were used as reference compounds. Migration was assessed using the 48-well Boyden chamber and 8 μm pore size collagen-coated (10 μg/mL rat tail collagen; Collaborative Laboratories) polycarbonate filters (Osmonics, Inc.). The bottom chamber wells received 27-29 μL of DMEM medium alone (baseline) or medium containing chemo-attractant (bFGF, VEGF or Swiss 3T3 cell conditioned medium). The top chambers received 45 μL of HUVEC cell suspension (1×10^6 cells/mL) prepared in DMEM+1% BSA with or without test compound. After 5 h incubation at 37° C., the membrane was rinsed in PBS, fixed and stained in Diff-Quick solutions. The filter was placed on a glass slide with the migrated cells facing down and cells on top were removed using a Kimwipe. The testing was performed in 4-6 replicates and five fields were counted from each well. Negative, unstimulated, control values were subtracted from stimulated control and drug treated values and data was plotted as mean migrated cell±S.D. The IC50 was calculated from the plotted data.

CC1CC(C)CC(C)C(O)CC(=O)OC(C2CCCC2C(=O)NCc2cccnc2)C(C#N)=CC=CCC(O)C(C)C1 (stereo not drawn) [borrelidin-(3-picolylamide)]
increase of micrometastases [1]: inhibit very considerably | metastasis-forming ability of mouse colon adenocarcinoma cells transplanted into mouse spleen [2]: considerably decreased

CC1CC(C)CC(C)C(O)C(C#N)=CC=CCC(C2CCC2C(=O)O)OC(=O)CC(O)C(C)C1 (stereo not drawn) [compound 5, 17-des-(cyclopentane-2′-carboxylic acid)-17-(cyclobutane-2′-carboxylic acid) borrelidin]
increase in VEGFxxxb levels versus control ([3]; 5 μM): statistically higher than those of the control | total VEGF levels (ELISA) ([3]; increasing concentrations): dose dependent decrease | percentage neovascularisation compared to vehicle and the 5 μM dose ([4]; 0.5 μM injected into one eye): significantly inhibited | neovascularisation compared with contralateral eye ([4]; 0.5 μM injected into one eye): significant reduction | neovascularisation compared with contralateral eye ([4]; 5 μM injected into one eye): significant reduction | VEGFxxx expression (ELISA) [5]: significant downregulation | VEGFxxxb expression (ELISA) [5]: significant upregulation | effect on VEGFxxxb levels after FBP21 transfection (FBP21 in HEK cells): FBP21 transfection reduced the effect | effect on VEGFxxxb levels after FBP21 transfection (FBP21 in RPE cells): FBP21 transfection reduced the effect

pre-borrelidin
pIC50 (HUVEC [6]): 5.62 | pIC50 (HUVEC [7]): < 4.52 | identification of FBP21 fragment by biopanning (binding) (FBP21): never identified | pIC50 (HUVEC [8]): 6.34

— patent publication US20110027185A1, “Methods of Screening for Anti-Angiogenic Compounds” (priority 2007, published 2011)
